Data on 3 compounds can be found in US20230416329A1, “A PEPTIDE WITH DISULFIDE BONDS AND INHIBITORY ACTIVITY AGAINST SERINE PROTEASES, DERIVED HYBRID PEPTIDES THEREOF, AND USES THEREOF” (INSTITUTE OF MATERIA MEDICA , CHINESE ACADEMY OF MEDICAL …, priority 2020, published 2023).

For data set [1], the target named is chymotrypsin (Bos taurus, UniProt P00766). Put plainly: in vitro. The following applies: isolated enzyme chymotrypsin, pH 7.8, Remaining peak area (%)/chymotrypsin. The method in brief: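 RP-HPLC peak area tracked intact peptide after 37 °C digestion with chymotrypsin (0.05 μg/μL solution, 5 min preincubation). Samples were withdrawn at 1.5-60.0 min and stopped with 10% TFA.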

The target of data set [2] is DPP-IV (Homo sapiens, UniProt P27487). Put plainly: Tolerance of GLP-1 and its analogues to DPP-IV (RP-HPLC remaining peak area). The data set is classed as in vitro ADME. The note with it: peptide 25 μM, DPP-IV 0.5 ng/μL, 37° C.; for Remaining peak area (%)/DPP-IV: 0.0 h; for remaining at 0.5 h, 25 μM / remaining at 2 h, 25 μM / remaining at 4 h, 25 μM / remaining at 8 h, 25 μM / remaining at 12 h, 25 μM: isolated DPP-IV enzyme in buffer, pH 8. Here is the method:
(§1) Mix by centrifugation at 8000 rpm for 30 seconds.
(2) Arrange a certain volume of 0.005 μg/μL DPP-IV solution in another sterile EP.

The target of data set [3] is NEP24.11 (Homo sapiens, UniProt P08473). Put plainly: Tolerance of GLP-1 and its analogues to NEP24.11 (RP-HPLC remaining peak area). The following applies: peptide 30 μM, NEP24.11 1.0 ng/μL; for Remaining peak area (%)/NEP24.11: 0.0 h; for Remaining peak area (%)/NEP24.11 / remaining at 0.5 h, 30 μM / remaining at 2 h, 30 μM / remaining at 4 h, 30 μM / remaining at 8 h, 30 μM: 37° C.; for remaining at 0.5 h, 30 μM / remaining at 2 h, 30 μM / remaining at 4 h, 30 μM / remaining at 8 h, 30 μM: isolated NEP24.11 enzyme in buffer; for remaining at 0.5 h, 30 μM: pH 7.4, 0.5 h; for remaining at 2 h, 30 μM: pH 7.4, 2.0 h; for remaining at 4 h, 30 μM: pH 7.4, 4.0 h; for remaining at 8 h, 30 μM: pH 7.4, 8.0 h, read-out: Remaining peak area (%)/NEP24.11. The data set is classed as in vitro ADME. Here is the method:
as §1
Arrange a certain volume of 0.04 μg/μL NEP24.11 enzyme solution in another sterile EP.

Data set [4] has as its target T1, trypsin (Bos taurus, UniProt P00760).
T1 sequence (P00760 24-246): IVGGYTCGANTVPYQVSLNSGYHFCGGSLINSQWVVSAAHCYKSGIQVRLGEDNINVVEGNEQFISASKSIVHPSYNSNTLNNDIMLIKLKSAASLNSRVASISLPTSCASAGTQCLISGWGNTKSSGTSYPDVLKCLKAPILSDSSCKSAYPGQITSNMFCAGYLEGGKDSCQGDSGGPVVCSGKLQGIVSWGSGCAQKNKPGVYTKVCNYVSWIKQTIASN
Put plainly: in vitro. The following applies: isolated enzyme trypsin, pH 7.8. The gist of the method: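 Remaining RP-HPLC peak area tracks undigested peptide over time. Samples were quenched with 10% TFA at time points between 1.5 and 60 min during 37 °C digestion. Trypsin was added from a 0.05 μg/μL solution after 5 min of thermal equilibration.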

Sequence of DPP-IV (P27487 whole entry, species assumed): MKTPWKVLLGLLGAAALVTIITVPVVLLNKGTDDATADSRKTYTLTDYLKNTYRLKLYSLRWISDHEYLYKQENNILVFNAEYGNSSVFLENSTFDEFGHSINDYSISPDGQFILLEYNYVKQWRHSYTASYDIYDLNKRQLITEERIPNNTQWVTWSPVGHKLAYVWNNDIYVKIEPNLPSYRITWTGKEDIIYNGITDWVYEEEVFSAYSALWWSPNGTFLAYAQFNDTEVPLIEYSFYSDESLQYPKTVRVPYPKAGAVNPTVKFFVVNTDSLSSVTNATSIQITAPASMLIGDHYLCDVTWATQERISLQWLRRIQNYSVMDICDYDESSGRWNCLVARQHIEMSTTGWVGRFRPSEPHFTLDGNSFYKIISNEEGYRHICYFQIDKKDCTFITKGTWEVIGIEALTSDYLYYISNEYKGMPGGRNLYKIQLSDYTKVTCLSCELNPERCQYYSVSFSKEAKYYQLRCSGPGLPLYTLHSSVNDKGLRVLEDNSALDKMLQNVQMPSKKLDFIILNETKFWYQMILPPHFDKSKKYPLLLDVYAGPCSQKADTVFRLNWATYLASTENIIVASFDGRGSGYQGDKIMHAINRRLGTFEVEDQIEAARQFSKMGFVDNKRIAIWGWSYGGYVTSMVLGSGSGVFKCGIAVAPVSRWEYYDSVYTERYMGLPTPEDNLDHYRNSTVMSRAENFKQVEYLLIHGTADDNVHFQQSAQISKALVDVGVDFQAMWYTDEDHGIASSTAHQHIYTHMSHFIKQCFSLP
Sequence of NEP24.11 (P08473 whole entry): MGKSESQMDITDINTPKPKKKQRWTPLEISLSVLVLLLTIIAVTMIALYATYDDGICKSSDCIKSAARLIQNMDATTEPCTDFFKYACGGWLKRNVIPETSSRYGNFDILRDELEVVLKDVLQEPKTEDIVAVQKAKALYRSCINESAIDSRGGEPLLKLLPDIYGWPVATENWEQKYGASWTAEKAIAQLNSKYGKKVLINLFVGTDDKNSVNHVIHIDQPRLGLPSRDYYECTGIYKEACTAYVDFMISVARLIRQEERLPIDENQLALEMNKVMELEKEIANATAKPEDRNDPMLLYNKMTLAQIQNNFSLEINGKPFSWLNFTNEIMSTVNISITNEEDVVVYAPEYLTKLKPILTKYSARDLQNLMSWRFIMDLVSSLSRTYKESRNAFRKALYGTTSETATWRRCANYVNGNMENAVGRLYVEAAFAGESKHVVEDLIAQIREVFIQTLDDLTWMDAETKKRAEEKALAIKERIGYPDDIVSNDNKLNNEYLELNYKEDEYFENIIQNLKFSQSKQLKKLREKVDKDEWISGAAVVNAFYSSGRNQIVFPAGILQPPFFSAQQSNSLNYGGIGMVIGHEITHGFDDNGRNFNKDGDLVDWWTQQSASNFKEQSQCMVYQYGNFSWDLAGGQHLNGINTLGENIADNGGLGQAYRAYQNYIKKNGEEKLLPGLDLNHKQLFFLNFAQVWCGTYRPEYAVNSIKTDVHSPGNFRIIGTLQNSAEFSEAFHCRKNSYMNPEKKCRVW

In the case of `CC[C@H](C)[C@H](NC(=O)[C@H](Cc1ccccc1)NC(=O)[C@H](CCC(=O)O)NC(=O)[C@H](CCCCN)NC(=O)[C@H](C)NC(=O)[C@H](C)NC(=O)[C@H](CCC(N)=O)NC(=O)CNC(=O)[C@H](CCC(=O)O)NC(=O)[C@H](CC(C)C)NC(=O)[C@H](Cc1ccc(O)cc1)NC(=O)[C@H](CO)NC(=O)[C@H](CO)NC(=O)[C@@H](NC(=O)[C@H](CC(=O)O)NC(=O)[C@H](CO)NC(=O)[C@@H](NC(=O)[C@H](Cc1ccccc1)NC(=O)[C@@H](NC(=O)CNC(=O)[C@H](CCC(=O)O)NC(=O)[C@H](C)NC(=O)[C@H](Cc1c[nH]cn1)NC(=O)CNC(=O)CNC(=O)[C@H](CCCNC(=N)N)NC(=O)[C@H](CO)NC(=O)[C@H](Cc1ccccc1)NC(=O)[C@H](CCCNC(=N)N)NC(=O)[C@H](CCC(N)=O)NC(=O)CNC(=O)CNC(=O)[C@H](Cc1ccccc1)NC(=O)[C@@H]1CSSC[C@H](N)C(=O)NCC(=O)N[C@@H](CCCNC(=N)N)C(=O)N[C@@H](C)C(=O)N[C@@H]([C@@H](C)O)C(=O)N[C@@H](CCCCN)C(=O)N[C@@H](CO)C(=O)N[C@@H]([C@@H](C)CC)C(=O)N2CCC[C@H]2C(=O)N2CCC[C@H]2C(=O)N[C@@H]([C@@H](C)CC)C(=O)N1)[C@@H](C)O)[C@@H](C)O)C(C)C)C(=O)N[C@@H](C)C(=O)N[C@@H](Cc1c[nH]c2ccccc12)C(=O)N[C@@H](CC(C)C)C(=O)N[C@H](C(=O)N[C@@H](CCCCN)C(=O)NCC(=O)N[C@@H](CCCNC(=N)N)C(=O)NCC(=O)NCC(=O)N[C@@H](CCCCN)C(=O)O)C(C)C` [BT9-N-GLP-1], in data set [1], the remaining at 0.025 h, 60 μM is 77.1 ± 1.8%; the remaining at 0.05 h, 60 μM turned out to be 57.7 ± 2%; the remaining at 0.075 h, 60 μM was 50.4 ± 3.2%; the remaining at 0.1 h, 60 μM came out at 41.2 ± 3.1%. Besides, the remaining at 0.15 h, 60 μM in data set [1] turned out to be 26 ± 2.9%. In data set [2], the “Remaining peak area (%)/DPP-IV” value is listed as 100.0 ± 0.0%; the remaining at 0.5 h, 25 μM stood at 92.5 ± 1.5%; the remaining at 2 h, 25 μM came to 88 ± 1.8%; the remaining at 4 h, 25 μM worked out at 79.4 ± 2.2%. Further, in data set [2], the remaining at 8 h, 25 μM was found to be 76.1 ± 1.4% and the remaining at 12 h, 25 μM came to 71.2 ± 2.1%. Further, in data set [3], the “Remaining peak area (%)/NEP24.11” value was 100.0 ± 0.0%; the remaining at 0.5 h, 30 μM came to 76.4 ± 1.1%; the remaining at 2 h, 30 μM came to 63.5 ± 1.9%; the remaining at 4 h, 30 μM is 47 ± 4.3%. Also, the remaining at 8 h, 30 μM in data set [3] stood at 41.8 ± 2.7%. For the same compound, in data set [4], the remaining at 0.025 h, 60 μM worked out at 90.8 ± 0.5%; the remaining at 0.05 h, 60 μM came to 90.4 ± 2%; the remaining at 0.075 h, 60 μM worked out at 91 ± 2.1%; the remaining at 0.1 h, 60 μM was 91.1 ± 3%. In data set [4], the remaining at 0.15 h, 60 μM was found to be 90.9 ± 3.1%; the remaining at 0.25 h, 60 μM is 86.6 ± 3.5%; the remaining at 0.5 h, 60 μM stood at 86.5 ± 3.5%; the remaining at 1 h, 60 μM is 74.4 ± 2.6%.
On to `CC[C@H](C)[C@H](NC(=O)[C@H](Cc1ccccc1)NC(=O)[C@H](CCC(=O)O)NC(=O)[C@H](CCCCN)NC(=O)[C@H](C)NC(=O)[C@H](C)NC(=O)[C@H](CCC(N)=O)NC(=O)CNC(=O)[C@H](CCC(=O)O)NC(=O)[C@H](CC(C)C)NC(=O)[C@H](Cc1ccc(O)cc1)NC(=O)[C@H](CO)NC(=O)[C@H](CO)NC(=O)[C@@H](NC(=O)[C@H](CC(=O)O)NC(=O)[C@H](CO)NC(=O)[C@@H](NC(=O)[C@H](Cc1ccccc1)NC(=O)[C@@H](NC(=O)CNC(=O)[C@H](CCC(=O)O)NC(=O)[C@H](C)NC(=O)[C@H](Cc1c[nH]cn1)NC(=O)CNC(=O)CNC(=O)[C@H](CCCNC(=N)N)NC(=O)[C@H](CO)NC(=O)[C@H](Cc1ccccc1)NC(=O)[C@H](CCCNC(=N)N)NC(=O)[C@H](CCC(N)=O)NC(=O)CNC(=O)CN)[C@@H](C)O)[C@@H](C)O)C(C)C)C(=O)N[C@@H](C)C(=O)N[C@@H](Cc1c[nH]c2ccccc12)C(=O)N[C@@H](CC(C)C)C(=O)N[C@H](C(=O)N[C@@H](CCCCN)C(=O)NCC(=O)N[C@@H](CCCNC(=N)N)C(=O)NCC(=O)NCC(=O)N[C@@H](CCCCN)C(=O)O)C(C)C` [N-GLP-1], for which, in data set [1], the remaining at 0.025 h, 60 μM is 65.8 ± 2.6%; the remaining at 0.05 h, 60 μM is 69.3 ± 4%; the remaining at 0.075 h, 60 μM stood at 66.2 ± 1.9%; the remaining at 0.1 h, 60 μM turned out to be 60.9 ± 0.8%. For the same compound, the remaining at 0.15 h, 60 μM in data set [1] stood at 45.8 ± 5.4%. Further, in data set [2], the “Remaining peak area (%)/DPP-IV” value is 100.0 ± 0.0%; the remaining at 0.5 h, 25 μM was found to be 73.9 ± 5%; the remaining at 2 h, 25 μM was 76.9 ± 3%; the remaining at 4 h, 25 μM is 79.6 ± 2.3%. Further, in data set [2], the remaining at 8 h, 25 μM amounted to 74.9 ± 5.3% and the remaining at 12 h, 25 μM came out at 74.6 ± 10.1%. In addition, in data set [3], the “Remaining peak area (%)/NEP24.11” value amounted to 100.0 ± 0.0%; the remaining at 0.5 h, 30 μM came to 83.9 ± 2.8%; the remaining at 2 h, 30 μM amounted to 54.9 ± 13.6%; the remaining at 4 h, 30 μM came to 51 ± 6.5%. Moreover, in data set [3], the remaining at 8 h, 30 μM is 56.4 ± 15.8%. Besides, in data set [3] (8 hours), the “remaining amount after NEP24.11 hydrolysis” value is on record as “about 56.4%”. Further, in data set [4], the remaining at 0.025 h, 60 μM stood at 16.9 ± 1.6%; the remaining at 0.05 h, 60 μM is 3.7 ± 5.3%; the remaining at 0.075 h, 60 μM was 1.2 ± 1.7%; the remaining at 0.1 h, 60 μM was 0%. Further, the remaining at 0.15 h, 60 μM in data set [4] turned out to be 0%.
For the compound `CC[C@H](C)[C@H](NC(=O)[C@H](Cc1ccccc1)NC(=O)[C@H](CCC(=O)O)NC(=O)[C@H](CCCCN)NC(=O)[C@H](C)NC(=O)[C@H](C)NC(=O)[C@H](CCC(N)=O)NC(=O)CNC(=O)[C@H](CCC(=O)O)NC(=O)[C@H](CC(C)C)NC(=O)[C@H](Cc1ccc(O)cc1)NC(=O)[C@H](CO)NC(=O)[C@H](CO)NC(=O)[C@@H](NC(=O)[C@H](CC(=O)O)NC(=O)[C@H](CO)NC(=O)[C@@H](NC(=O)[C@H](Cc1ccccc1)NC(=O)[C@@H](NC(=O)CNC(=O)[C@H](CCC(=O)O)NC(=O)[C@H](C)NC(=O)[C@H](Cc1c[nH]cn1)NC(=O)CNC(=O)CNC(=O)[C@H](CCCNC(=N)N)NC(=O)[C@H](CO)NC(=O)[C@H](Cc1ccccc1)NC(=O)[C@H](CCCNC(=N)N)NC(=O)[C@H](CCC(N)=O)NC(=O)CN)[C@@H](C)O)[C@@H](C)O)C(C)C)C(=O)N[C@@H](C)C(=O)N[C@@H](Cc1c[nH]c2ccccc12)C(=O)N[C@@H](CC(C)C)C(=O)N[C@H](C(=O)N[C@@H](CCCCN)C(=O)NCC(=O)N[C@@H](CCCNC(=N)N)C(=O)NCC(=O)NCC(=O)N[C@@H](CCCCN)C(=O)NCC(=O)N[C@H]1CSSC[C@@H](C(=O)N[C@@H](Cc2ccccc2)C(=O)O)NC(=O)[C@H]([C@@H](C)CC)NC(=O)[C@@H]2CCCN2C(=O)[C@@H]2CCCN2C(=O)[C@H]([C@@H](C)CC)NC(=O)[C@H](CO)NC(=O)[C@H](CCCCN)NC(=O)[C@H]([C@@H](C)O)NC(=O)[C@H](C)NC(=O)[C@H](CCCNC(=N)N)NC(=O)CNC1=O)C(C)C` [N-GLP-1-BT9], in data set [1], the remaining at 0.025 h, 60 μM was determined as 75.5 ± 5.3%; the remaining at 0.05 h, 60 μM is 56.3 ± 2.1%; the remaining at 0.075 h, 60 μM turned out to be 47 ± 1.6%; the remaining at 0.1 h, 60 μM is 38.1 ± 2.2%. In data set [1], the remaining at 0.15 h, 60 μM was 24.2 ± 3%. Further, in data set [2], the “Remaining peak area (%)/DPP-IV” value came to 100.0 ± 0.0%; the remaining at 0.5 h, 25 μM was determined as 90 ± 3%; the remaining at 2 h, 25 μM stood at 89.5 ± 1.8%; the remaining at 4 h, 25 μM worked out at 89.6 ± 3.6%. Also, in data set [2], the remaining at 8 h, 25 μM stood at 89.2 ± 1% and the remaining at 12 h, 25 μM worked out at 89.3 ± 7.5%. Moreover, in data set [3], the “Remaining peak area (%)/NEP24.11” value is recorded as 100.0 ± 0.0%; the remaining at 0.5 h, 30 μM is 85.9 ± 2.8%; the remaining at 2 h, 30 μM amounted to 74.9 ± 1.4%; the remaining at 4 h, 30 μM is 66.8 ± 2.1%. Further, in data set [3], the remaining at 8 h, 30 μM worked out at 52.7 ± 3.9%. Further, in data set [4], the remaining at 0.025 h, 60 μM was 105 ± 3%; the remaining at 0.05 h, 60 μM was found to be 104 ± 2.8%; the remaining at 0.075 h, 60 μM was determined as 102 ± 3%; the remaining at 0.1 h, 60 μM is 104 ± 6.4%. Further, in data set [4], the remaining at 0.15 h, 60 μM is 103 ± 3.5%; the remaining at 0.25 h, 60 μM came to 102 ± 4.9%; the remaining at 0.5 h, 60 μM amounted to 96.4 ± 9.9%; the remaining at 1 h, 60 μM came out at 86.3 ± 6.4%.
